In patent publication US11459319B2, “Cytochrome P450 inhibitors and uses thereof” (ANGION BIOMEDICA CORP., priority 2014, dated 2022) one finds Km and IC50 data, which are given here for ten molecules.

Some results are limits rather than exact numbers.

B1: CYP26 (Mus musculus) (protein)
chain: MGLPALLASALCTFVLPLLLFLAALKLWDLYCVSSRDRSCALPLPPGTMGFPFFGETLQMVLQRRKFLQMKRRKYGFIYKTHLFGRPTVRVMGADNVRRILLGEHRLVSVHWPASVRTILGAGCLSNLHDSSHKQRKKVIMQAFSREALQCYVLVIAEEVSSCLEQWLSCGERGLLVYPEVKRLMFRIAMRILLGCEPGPAGGGEDEQQLVEAFEEMTRNLFSLPIDVPFSGLYRGVKARNLIHARIEENIRAKIRRLQATEPDGGCKDALQLLIEHSWERGERLDMQALKQSSTELLFGGHETTASAATSLITYLGLYPHVLQKVREEIKSKGLLCKSNQDNKLDMETLEQLKYIGCVIKETLRLNPPVPGGFRVALKTFELNGYQIPKGWNVIYSICDTHDVADIFTNKEEFNPDRFIVPHPEDASRFSFIPFGGGLRSCVGKEFAKILLKIFTVELARHCDWQLLNGPPTMKTSPTVYPVDNLPARFTYFQGDI

The first data set has as its target T1, human recombinant enzyme (CYP26) (Homo sapiens, UniProt O43174).
T1 sequence (O43174 1-497): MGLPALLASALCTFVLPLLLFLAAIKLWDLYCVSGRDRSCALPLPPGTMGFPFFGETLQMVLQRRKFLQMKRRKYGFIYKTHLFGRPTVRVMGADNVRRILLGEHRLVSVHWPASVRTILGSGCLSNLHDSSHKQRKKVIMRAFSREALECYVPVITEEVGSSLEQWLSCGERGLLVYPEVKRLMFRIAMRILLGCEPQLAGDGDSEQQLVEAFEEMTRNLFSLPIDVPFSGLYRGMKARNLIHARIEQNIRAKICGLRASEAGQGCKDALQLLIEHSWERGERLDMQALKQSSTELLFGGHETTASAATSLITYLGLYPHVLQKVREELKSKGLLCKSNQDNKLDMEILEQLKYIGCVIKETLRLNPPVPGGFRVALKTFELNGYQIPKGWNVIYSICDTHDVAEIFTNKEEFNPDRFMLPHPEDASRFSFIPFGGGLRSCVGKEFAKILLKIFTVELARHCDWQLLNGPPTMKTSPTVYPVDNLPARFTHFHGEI
Test: not given
The settings on record: read-out: Km reported for the human recombinant enzyme; cited from earlier work.
Turning to `CC1=C(/C=C/C(C)=C/C=C/C(C)=C/C(=O)O)C(C)(C)CCC1` [ATRA, all-trans retinoic acid], the Km is ~0.01 µM.

The next data set addresses T2, CYP26 (Mus musculus, UniProt O55127).
T2 construct: substrate depletion assay for ATRA metabolism in mouse microsomes; tissue Xenotech; host or cells: liver microsomes of mice treated with ATRA for four days
T2 sequence (O55127 1-497): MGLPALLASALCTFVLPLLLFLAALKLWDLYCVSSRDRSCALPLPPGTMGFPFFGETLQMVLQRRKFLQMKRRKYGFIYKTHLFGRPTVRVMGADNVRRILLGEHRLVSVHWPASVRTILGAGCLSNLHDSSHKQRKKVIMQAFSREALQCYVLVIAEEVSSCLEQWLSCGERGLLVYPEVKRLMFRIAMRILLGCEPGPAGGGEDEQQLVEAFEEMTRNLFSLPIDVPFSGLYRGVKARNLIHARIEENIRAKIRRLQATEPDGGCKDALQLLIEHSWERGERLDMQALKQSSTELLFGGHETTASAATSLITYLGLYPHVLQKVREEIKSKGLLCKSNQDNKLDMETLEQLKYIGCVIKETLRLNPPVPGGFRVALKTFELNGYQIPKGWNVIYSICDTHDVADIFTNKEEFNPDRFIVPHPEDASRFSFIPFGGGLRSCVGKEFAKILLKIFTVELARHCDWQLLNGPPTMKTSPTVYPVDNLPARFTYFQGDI
Kind of data set: CYP26 inhibition: substrate depletion assay for ATRA metabolism in induced mouse liver microsomes. The class given is biochemical.
Conditions: not given
Background: Liver microsomes are vesicles of endoplasmic reticulum, rich in cytochrome P450 enzymes.
`CCC(CC)C(c1ccc2nc(OCC(C)(C)C(=O)O)sc2c1)n1cncn1` (stereo not shown) [Example-1, 3-((6-(2-Ethyl-1-(1H-1,2,4-triazol-1-yl)butyl)benzo[d]thiazol-2-yl)oxy)-2,2-dimethylpropanoic Acid]: the IC50 was < 1 µM.
The same measure, in the same setting: the result for `CCC(CC)C(c1ccc2nc(OCC(C)(C)C(=O)O)sc2c1)n1cnnc1` (stereo not shown) [Example-2, 3-((6-(2-Ethyl-1-(4H-1,2,4-triazol-4-yl)butyl)benzo[d]thiazol-2-yl)oxy)-2,2-dimethylpropanoic Acid] reads < 1 µM; that for `CCC(CC)C(c1ccc2nc(OCC3(C(=O)O)CCCC3)sc2c1)n1cncn1` (stereo not shown) [Example-3, 1-(((6-(2-Ethyl-1-(1H-1,2,4-triazol-1-yl)butyl)benzo[d]thiazol-2-yl)oxy)methyl)cyclopentanecarboxylic Acid], < 1 µM; that for `CCC(CC)C(c1ccc2nc(OCC3(C(=O)O)CCCC3)sc2c1)n1cnnc1` (stereo not shown) [Example-4, 1-(((6-(2-Ethyl-1-(4H-1,2,4-triazol-4-yl)butyl)benzo[d]thiazol-2-yl)oxy)methyl)cyclopentanecarboxylic Acid], < 1 µM.
On the same count and under the same terms, the result for `CCC(CC)C(c1ccc2nc(OCC3(C(=O)O)CCCCC3)sc2c1)n1cncn1` (stereo not shown) [Example-5, 1-(((6-(2-ethyl-1-(1H-1,2,4-triazol-1-yl)butyl)benzo[d]thiazol-2-yl)oxy)methyl)cyclohexanecarboxylic Acid] reads < 1 µM; that for `CCC(CC)C(c1ccc2nc(OCC3(C(=O)O)CCCCC3)sc2c1)n1cnnc1` (stereo not shown) [Example-6, 1-(((6-(2-Ethyl-1-(4H-1,2,4-triazol-4-yl)butyl)benzo[d]thiazol-2-yl)oxy)methyl)cyclohexanecarboxylic Acid], < 1 µM.
The same measure, in the same setting: the result for `CCC(CC)C(c1ccc2nc(-c3ccc(C(=O)O)cc3)sc2c1)n1cncn1` (stereo not shown) [Example-7, 4-(6-(2-ethyl-1-(1H-1,2,4-triazol-1-yl)butyl)benzo[d]thiazol-2-yl)benzoic Acid] reads < 1 µM.
`CCC(CC)C(c1ccc2nc(-c3ccc(C(=O)O)cc3)sc2c1)n1cnnc1` (stereo not shown) [Example-8, 4-(6-(2-ethyl-1-(4H-1,2,4-triazol-4-yl)butyl)benzo[d]thiazol-2-yl)benzoic Acid]: the 50% inhibitory concentration (IC50) was < 1 µM.

Substrate in a further data set: CC1=C(/C=C/C(C)=C/C=C/C(C)=C/C(=O)O)C(C)(C)CCC1
As to the kind of experiment: cells, lysate or membranes named. The settings on record: other: induced mouse microsomes, Michaelis-Menten kinetics; pH 7.4.
For the molecule B1, the Km was determined as 0.004 µM.

One may read the Km as the substrate concentration at which the rate is half of its maximum. For orientation: IC50 means the concentration that gives 50% inhibition. A lower IC50 goes with greater potency in that assay.
